We go through 10 molecules from patent US20170275287A1, “NOVEL N2, N4, N7, 6-TETRASUBSTITUTED PTERIDINE-2,4,7-TRIAMINE AND 2, 4, 6, 7-TETRASUBSTITUTED PTERIDINE COMPOUNDS AND METHODS OF SYNTHESIS AND USE THEREOF” (Janus Biotherapeutics, Inc., priority 2014, published 2017).

Data set [1] addresses T1, hERG (Homo sapiens, UniProt Q12809).
T1 construct: host or cells: CHO (Chinese hamster ovary)
In words: hERG patch clamp assay (automated, CHO-hERG cells). The format is cell-based. As to the method:
The hERG inhibition assay uses a high throughput single cell planar patch clamp approach. Chinese hamster ovary cells transfected with the hERG gene (CHO-hERG) are dispensed into the PatchPlate. Amphotericin is used as a perforating agent to gain electrical access to the cells. The hERG tail current is measured prior to the addition of the test compound by perforated patch clamping. Following addition of the test compound at a defined concentration or range of concentrations a second recording of the hERG current is performed. The degree of inhibition (%) is obtained by measuring the tail current amplitude, which is induced by a one second test pulse to −40 mV after a two second pulse to +20 mV, before and after drug incubation (the difference current is normalized to control and multiplied by 100 to obtain the percent of inhibition).
Concentration (log) response curves were fitted to a logistic equation (three parameters assuming complete block of the current at very high test compound concentrations) to generate estimates of the 50% inhibitory concentration (IC50). The concentration-response relationship of each compound is constructed from the percentage reductions of current The data is usually categorized into the following classification bands:
The hERG assay was conducted by Cyprotec Inc. in its Watertown, Mass. laboratories. The concentration range tested was 0.0096-30 μM. No concentration-dependent inhibition was observed, IC50>30 μM.
The hERG inhibition assay uses a high throughput single cell planar patch clamp approach. Chinese hamster ovary cells transfected with the hERG gene (CHO-hERG) are dispensed into the PatchPlate. Amphotericin is used as a perforating agent to gain electrical access to the cells. The hERG tail current is measured prior to the addition of the test compound by perforated patch clamping. Following addition of the test compound, n=4 cells per concentration, final DMSO concentration=0.25%), a second recording of the hERG current is performed.
Post-compound hERG currents are expressed as a percentage of pre-compound hERG currents (% control current) and plotted against concentration for each compound. Where concentration dependent inhibition is observed the Hill equation is used to fit a sigmoidal line to the data and an IC50 (concentration at which 50% inhibition is observed) is determined. The assays were performed according to Haverkamp, W. et al., 2000, Eur Heart J., 21:1216-1231, Kiss, L. et al., 2003, Assay Drug Dev. Technol., 1:127-135 and Schroeder, K. et al., 2003, J. Biomol Screen, 8:50-64.

Data set [2] has as its target T2, TLR7 (Homo sapiens, UniProt Q9NYK1).
T2 sequence (Q9NYK1 27-1049): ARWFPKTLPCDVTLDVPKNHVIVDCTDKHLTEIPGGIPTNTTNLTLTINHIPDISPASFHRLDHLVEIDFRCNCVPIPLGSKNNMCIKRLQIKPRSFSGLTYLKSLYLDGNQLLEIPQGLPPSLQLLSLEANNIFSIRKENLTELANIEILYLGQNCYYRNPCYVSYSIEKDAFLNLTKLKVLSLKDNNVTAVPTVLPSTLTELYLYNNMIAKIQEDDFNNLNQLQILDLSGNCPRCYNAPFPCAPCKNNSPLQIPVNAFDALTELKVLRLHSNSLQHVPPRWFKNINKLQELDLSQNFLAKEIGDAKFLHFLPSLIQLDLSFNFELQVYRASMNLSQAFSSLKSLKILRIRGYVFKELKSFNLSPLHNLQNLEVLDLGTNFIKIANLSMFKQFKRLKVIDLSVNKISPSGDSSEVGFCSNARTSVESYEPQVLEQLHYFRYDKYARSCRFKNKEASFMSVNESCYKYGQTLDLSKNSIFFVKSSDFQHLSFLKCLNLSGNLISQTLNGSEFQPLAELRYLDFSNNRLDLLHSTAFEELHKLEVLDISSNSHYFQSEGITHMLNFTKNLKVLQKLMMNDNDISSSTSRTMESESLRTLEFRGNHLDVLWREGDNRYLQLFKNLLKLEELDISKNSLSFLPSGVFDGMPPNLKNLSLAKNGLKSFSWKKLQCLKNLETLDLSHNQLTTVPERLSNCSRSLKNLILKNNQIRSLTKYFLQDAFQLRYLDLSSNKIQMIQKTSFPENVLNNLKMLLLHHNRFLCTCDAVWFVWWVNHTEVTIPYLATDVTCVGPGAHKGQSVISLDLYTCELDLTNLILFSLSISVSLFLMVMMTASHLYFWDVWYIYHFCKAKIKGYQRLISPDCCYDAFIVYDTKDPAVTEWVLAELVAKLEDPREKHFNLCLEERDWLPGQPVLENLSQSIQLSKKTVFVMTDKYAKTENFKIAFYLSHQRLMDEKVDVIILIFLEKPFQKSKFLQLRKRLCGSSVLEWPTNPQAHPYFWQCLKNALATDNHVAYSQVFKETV
In words: Antagonist/agonist competitive inhibition cross titration (TLR7 agonist JB6011). The format is cell-based. Particulars: antagonist 10 uM to 4 nM vs agonist 0.12-3.3 μM; preliminary, one assay. As for the experimental part:
In preliminary results (i.e., one assay result—repeat assays in process), a cross titration of antagonist versus agonist was performed to determine the form of antagonist binding. JB6121 was titrated from 10 uM to 4 nM against various concentrations of challenge agonist. The small molecule TLR7 agonist JB6011 was used. The graph below, while crude, implies that the inhibition of the TLR7 agonist by JB6121 is competitive in nature due to the parallel tracking of the curves as the agonist dose is increased. The agonist range for this experiment was between 0.12 and 3.3 μM or about a 30-fold range.

T1 sequence (Q12809 whole entry): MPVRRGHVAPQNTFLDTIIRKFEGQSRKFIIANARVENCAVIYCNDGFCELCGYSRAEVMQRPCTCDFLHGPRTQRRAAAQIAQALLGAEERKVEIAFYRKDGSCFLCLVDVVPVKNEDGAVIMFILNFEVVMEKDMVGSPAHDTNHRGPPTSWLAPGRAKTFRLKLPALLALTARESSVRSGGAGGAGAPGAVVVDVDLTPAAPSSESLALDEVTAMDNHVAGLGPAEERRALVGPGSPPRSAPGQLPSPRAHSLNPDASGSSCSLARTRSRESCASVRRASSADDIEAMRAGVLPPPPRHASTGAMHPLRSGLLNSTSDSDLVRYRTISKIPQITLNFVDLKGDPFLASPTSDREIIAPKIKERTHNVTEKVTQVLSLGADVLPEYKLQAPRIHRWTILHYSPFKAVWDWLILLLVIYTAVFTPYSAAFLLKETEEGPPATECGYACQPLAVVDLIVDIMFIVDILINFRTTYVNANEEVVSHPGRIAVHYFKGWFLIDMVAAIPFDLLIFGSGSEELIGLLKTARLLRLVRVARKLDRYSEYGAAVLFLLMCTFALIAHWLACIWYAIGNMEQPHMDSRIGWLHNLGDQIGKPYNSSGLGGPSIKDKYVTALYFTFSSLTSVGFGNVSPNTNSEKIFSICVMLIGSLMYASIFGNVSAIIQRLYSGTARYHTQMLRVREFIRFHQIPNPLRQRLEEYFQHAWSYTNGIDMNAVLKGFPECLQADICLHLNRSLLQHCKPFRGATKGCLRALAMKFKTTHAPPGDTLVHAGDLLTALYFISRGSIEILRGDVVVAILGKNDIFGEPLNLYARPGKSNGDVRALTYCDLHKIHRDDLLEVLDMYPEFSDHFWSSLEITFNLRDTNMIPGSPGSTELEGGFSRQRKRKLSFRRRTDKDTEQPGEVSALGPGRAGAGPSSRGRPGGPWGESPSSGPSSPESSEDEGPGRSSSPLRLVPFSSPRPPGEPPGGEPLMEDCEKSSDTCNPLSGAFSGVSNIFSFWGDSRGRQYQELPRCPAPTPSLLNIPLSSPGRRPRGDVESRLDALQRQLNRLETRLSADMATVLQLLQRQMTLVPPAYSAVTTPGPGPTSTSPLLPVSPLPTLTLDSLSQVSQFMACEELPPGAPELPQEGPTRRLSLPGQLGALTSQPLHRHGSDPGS

On to `CN1CCN(c2nc(NCCN3CCOCC3)c3ncc(-c4ccccc4)nc3n2)CC1` [JB6059], for which the IC50 in data set [1] (Table 4b) was determined as 5 µM; in data set [1] (hERG patch clamp assay, FIG. 1), 6.2 µM.
As for `CN1CCN(c2nc3nc(-c4ccccc4)nc(NCCN4CCOCC4)c3nc2OCCN2CCOCC2)CC1` [JB6116], the concentration for half-maximal inhibition (IC50) in data set [1] (hERG patch clamp assay, FIG. 1) was 13.1 µM; in data set [1] (human, CHO cells transfected with hERG (CHO-hERG), Table 4b), less than 30 µM.
`CN1CCN(c2nc(NCCN3CCOCC3)c3nc(Cl)c(NCCN4CCOCC4)nc3n2)CC1` [JB6121, 6-chloro-2-(4-methylpiperazin-1-yl)-N^4,N^7-bis(2-morpholinoethyl)pteridine-4,7-diamine]: the IC50 in data set [1] (Cyprotec, concentration range tested 0.0096-30 μM) is greater than 30 µM; in data set [1] (Table 4b), greater than 30 µM. In data set [1] (up to 30 μM), the hERG inhibition entry is “no measurable hERG inhibition”. The “form of antagonist binding: inhibition of the TLR7 agonist JB6011” value in data set [2] is “competitive”.
As to `CCOc1nc2c(NCCN3CCCC3)nc(-c3ccccc3)nc2nc1N1CCN(C)CC1` [JB6131], the IC50 in data set [1] (Table 4b) was less than 10 µM; in data set [1] (hERG patch clamp assay, FIG. 1), 8.1 µM.
Consider `CCCCNc1nc(NCCN2CCOCC2)c2nc(Cl)c(NCCN3CCOCC3)nc2n1` [JB6140], for which, in data set [1] (Table 4b), the IC50 is less than 1 µM. For the same molecule, in data set [2], the “form of antagonist binding: inhibition of the TLR7 agonist JB6011” value is “comparable result”.
With `C[C@@H]1CN(CCNc2nc3nc(N4CCN(C)CC4)nc(NCCN4C[C@@H](C)O[C@@H](C)C4)c3nc2Cl)C[C@H](C)O1` [JB6143], in data set [1] (Table 4b), the concentration for half-maximal inhibition (IC50) was greater than 30 µM.
`COCCN1CCN(c2nc(NCCN3CCOCC3)c3nc(Cl)c(NCCN4CCOCC4)nc3n2)CC1` [JB6160] displayed a half-inhibitory concentration (IC50) in data set [1] (Table 4b) greater than 30 µM.
With `Clc1nc2c(NCCN3CCOCC3)nc(NCc3ccccc3)nc2nc1NCCN1CCOCC1` [JB6172], the half-inhibitory concentration (IC50) in data set [1] (Table 4b) was found to be 1 µM.
In turn, `CCOc1nc2c(NCCN3CCOCC3)nc(NCc3ccccc3)nc2nc1NCCN1CCOCC1` [JB6180] showed an IC50 in data set [1] (Table 4b) of 0.3 µM.
As to `CCCCNc1nc(NCCN2CCOCC2)c2nc(SCC)c(NCCN3CCOCC3)nc2n1` [JB6185], the concentration for half-maximal inhibition (IC50) in data set [1] (Table 4b) was less than 0.3 µM.
